Measurements from patent publication US10851092B2, “Pyridine compound” (Daiichi Sankyo Company, Limited, priority 2016, dated 2020).
Like-named read-outs stand apart in the source and are kept apart here.

Key:
[1] = target: RET phosphorylation of the tyrosine at position 905 (pRET(Y905)) (Homo sapiens (Human), UniProt P07949+Q16204); experiment: RET phosphorylation (Y905) in LC-2/ad xenograft tumors, Western blotting; format: in vivo, NOG mice; conditions: tumor collected two and six hours after final administration (FIG. 2)
Description: (§1) Cells of a non-small cell lung cancer cell line LC-2/ad (RIKEN, J Thorac Oncol. 2012 December, 7(12), 1872-6) suspended in DPBS (Gibco, #14190) were mixed with an equal amount of Corning Matrigel Basement Membrane Matrix (Corning, #354234), and the obtained mixture was then subcutaneously transplanted into NOG mice to form a tumor. (The NOG mice were acclimatized after they had been received from In Vivo Science Inc., and thereafter, the cells were transplanted into the mice when the mice were 9 week olds. As feedstuff, FR-2 (manufactured by Funabashi Farm Co., Ltd.) was used.) After the tumor had reached a size of 100 to 200 mm^3, the mice were randomized based on tumor diameter, and oral administration of the compound of Example 4 (hereinafter referred to as Compound A) was then initiated. As a solvent for dissolving Compound A, 1% hydroxypropyl methyl cellulose was used. […] Moreover, the tumor was collected (no administration was carried out on the Vehicle group) two hours and six hours after the final administration of Compound A, and the RET phosphorylation of the tyrosine at position 905 used as an indicator of RET kinase activity (pRET(Y905), Nature Medicine, 18, 375-377 (2012)) was then detected by the Western blotting method.

[2] = system: thyroid gland cancer cell line TT having RET activating mutation (C634W); experiment: Cell growth inhibitory activity, thyroid gland cancer cell line TT; format: cell-based; conditions: Homo sapiens, 216 h; TT cells, 9 days, CellTiter-Glo
Description: The cell growth inhibitory activity of the test compound on the thyroid gland cancer cell line TT having RET activating mutation (C634W) (Biochemical and Biophysical Research Communications. 1995 Feb. 27 (207), 1022-1028) was measured.
TT cells were seeded on a 96-well plate at a cell density of 5,000 cells per well, and were then cultured at 37° C. in the presence of 5% CO2 overnight in an F-12K nutrient mixture medium containing 10% FBS. Thereafter, the compound was diluted, and then added to the 96-well plate. As a negative control, dimethyl sulfoxide (hereinafter referred to as DMSO) was added. The obtained mixture was cultured at 37° C. in the presence of 5% CO2 for 9 days, and thereafter, a cell count measuring reagent CellTiter-Glo® Luminescent Cell Viability Assay was added to the culture, followed by stirring the mixture. Thereafter, using a luminescence measurement device Envision (Perkin Elmer), the luminescence intensity was measured. The measurement value of a well to which only the medium had been added was define as a survival rate of 0%, and the measurement value of a well to which DMSO had been added was defined as a survival rate of 100%. The survival rate of the TT cells in the presence of each concentration of the test compound was calculated.

[3] = system: non-small cell lung cancer cell line LC-2/ad xenograft; experiment: Antitumor activity in xenograft model established with LC-2/ad; format: in vivo, NOG mice; conditions: oral
Description: as §1

KDR kinase = KDR kinase (Homo sapiens (Human), UniProt P35968); experiment: Evaluation of KDR kinase inhibiting activity (cell system), HUVEC, AlphaLISA; format: cell-based
Description: HUVEC cells were seeded on a plate at a cell density of 1500 cells per well, and then cultured overnight. The test compound (10 uM, 2.5 uM, 625 nM, 156 nM, […], 10 nM, 2.5 nM, or 0.6 nM) was added to each well, followed by culturing the obtained mixture for 2 hours. Thereafter, VEGF165 (Peprotech, #100-20) was added to the culture at a final concentration of 50 ng/ml, and the obtained mixture was then reacted at 37° C. for 5 minutes. Thereafter, the resulting cells were lysed with 50 ul of Lysis buffer included in AlphaLISA SureFire Ultra (Perkin Elmer, # ALSU-PVGFR-A500), and Acceptor beads and Donor beads were then added to 10 ul of the cell lysate according to the instruction manual included with the aforementioned kit. The mixture thus obtained was reacted at room temperature overnight, and thereafter, a KDR kinase inhibiting activity rate was measured using Envision (Perkin Elmer).
The value for a well to which only the Lysis buffer had been added was subtracted as a background from all of the values. Thereafter, the value for a well to which […] had been added and the test compound had not been added was defined as a KDR kinase activity of 100%, and the obtained value was corrected.

[4] = system: non-small cell lung cancer cell line LC-2/ad having a CCDC6-RET fusion gene; experiment: Cell growth inhibitory activity, non-small cell lung cancer cell line LC-2/ad; format: cell-based; conditions: Homo sapiens, 216 h; LC-2/ad cells, 9 days, CellTiter-Glo
Description: The cell growth inhibitory activity of the test compound on the non-small cell lung cancer cell line LC-2/ad having a CCDC6-RET fusion gene (RIKEN, J Thorac Oncol. 2012 December, 7(12), 1872-6) was measured.
LC-2/ad cells were seeded on a 96-well plate at a cell density of 5,000 cells per well, and then cultured at 37° C. in the presence of 5% CO2 overnight in a medium prepared by mixing RPMI-1640 containing 15% FBS and 25 mM HEPES with Ham's F12 Mixture at a mixing ratio of 1:1. Thereafter, the test compound was diluted, and then added to the 96-well plate. As a negative control, dimethyl sulfoxide (hereinafter referred to as DMSO) was added. The obtained mixture was cultured at 37° C. in the presence of 5% CO2 for 9 days, and thereafter, a cell count measuring reagent CellTiter-Glo® Luminescent Cell Viability Assay (Promega, # G7571) was added to the culture, followed by stirring the mixture. Thereafter, using a luminescence measurement device Envision, the luminescence intensity was measured. The measurement value of a well to which only the medium had been added was define as a survival rate of 0%, and the measurement value of a well to which DMSO had been added was defined as a survival rate of 100%. The survival rate of the LC-2/ad cells in the presence of each concentration of the test compound was calculated.

KDR kinase, sequence (P35968 20-1356): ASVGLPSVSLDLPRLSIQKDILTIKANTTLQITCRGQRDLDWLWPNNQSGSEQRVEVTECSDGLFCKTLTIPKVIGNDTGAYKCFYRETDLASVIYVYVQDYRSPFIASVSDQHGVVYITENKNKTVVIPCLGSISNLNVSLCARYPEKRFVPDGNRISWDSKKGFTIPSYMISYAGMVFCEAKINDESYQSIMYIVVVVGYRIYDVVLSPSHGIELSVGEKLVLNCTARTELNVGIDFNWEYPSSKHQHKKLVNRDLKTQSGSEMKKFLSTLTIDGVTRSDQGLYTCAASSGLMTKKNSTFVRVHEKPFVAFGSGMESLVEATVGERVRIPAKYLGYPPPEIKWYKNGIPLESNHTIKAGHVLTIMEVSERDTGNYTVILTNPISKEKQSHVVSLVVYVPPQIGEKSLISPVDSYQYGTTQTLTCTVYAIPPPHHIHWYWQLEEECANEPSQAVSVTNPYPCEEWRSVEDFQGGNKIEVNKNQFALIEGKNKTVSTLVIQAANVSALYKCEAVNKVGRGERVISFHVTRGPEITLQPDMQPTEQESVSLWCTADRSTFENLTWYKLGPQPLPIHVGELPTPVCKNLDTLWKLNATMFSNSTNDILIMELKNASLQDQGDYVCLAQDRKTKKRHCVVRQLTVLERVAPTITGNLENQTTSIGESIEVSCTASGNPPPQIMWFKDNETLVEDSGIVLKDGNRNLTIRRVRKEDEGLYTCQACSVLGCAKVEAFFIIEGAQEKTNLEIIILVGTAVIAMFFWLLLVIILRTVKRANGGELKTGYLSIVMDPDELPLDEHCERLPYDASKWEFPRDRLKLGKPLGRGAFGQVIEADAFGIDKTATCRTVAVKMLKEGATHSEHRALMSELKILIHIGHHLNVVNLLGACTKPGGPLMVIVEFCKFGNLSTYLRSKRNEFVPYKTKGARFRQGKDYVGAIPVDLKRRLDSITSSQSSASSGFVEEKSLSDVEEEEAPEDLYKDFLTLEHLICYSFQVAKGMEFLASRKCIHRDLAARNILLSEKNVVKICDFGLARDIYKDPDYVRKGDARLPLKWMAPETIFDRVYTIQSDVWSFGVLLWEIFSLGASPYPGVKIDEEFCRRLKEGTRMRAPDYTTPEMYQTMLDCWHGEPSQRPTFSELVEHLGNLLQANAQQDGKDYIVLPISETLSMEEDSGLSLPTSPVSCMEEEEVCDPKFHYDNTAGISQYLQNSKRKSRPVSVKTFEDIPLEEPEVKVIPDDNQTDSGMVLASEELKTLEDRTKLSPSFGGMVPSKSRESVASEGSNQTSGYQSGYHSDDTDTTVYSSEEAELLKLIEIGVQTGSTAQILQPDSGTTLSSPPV
RET phosphorylation of the tyrosine at position 905 (pRET(Y905)), sequence (P07949 other isoform, or with tags, fused parts or gaps): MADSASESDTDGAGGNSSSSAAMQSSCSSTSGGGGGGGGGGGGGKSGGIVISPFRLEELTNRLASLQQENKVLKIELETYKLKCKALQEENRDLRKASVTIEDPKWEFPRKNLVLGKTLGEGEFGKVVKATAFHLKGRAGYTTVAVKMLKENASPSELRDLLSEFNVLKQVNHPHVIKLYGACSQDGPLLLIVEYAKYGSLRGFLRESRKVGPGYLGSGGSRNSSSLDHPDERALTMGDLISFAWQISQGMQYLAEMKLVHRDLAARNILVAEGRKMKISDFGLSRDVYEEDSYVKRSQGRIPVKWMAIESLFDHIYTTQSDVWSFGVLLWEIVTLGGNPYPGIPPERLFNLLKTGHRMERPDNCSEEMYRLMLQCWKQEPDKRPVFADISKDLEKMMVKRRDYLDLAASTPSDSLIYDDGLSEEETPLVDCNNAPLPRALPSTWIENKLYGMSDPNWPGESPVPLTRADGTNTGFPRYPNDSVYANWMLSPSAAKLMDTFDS

IC50 [2]: 6 nM | IC50 (KDR kinase; KDR, HUVEC cells, VEGF165 50 ng/ml, compound 2 hours, read-out: IC50): 298 nM | IC50 (KDR kinase; cell system, Form: Mesylate, read-out: IC50 (nM) KDR): 287 nM | IC50 [4]: 49 nM
SMILES: COc1cc2cc(-c3ccc(CC(=O)Nc4cc(C(C)(C)C(F)(F)F)no4)cn3)cnc2cc1OC [Example 4, 2-[6-(6,7-Dimethoxyquinolin-3-yl)pyridin-3-yl]-N-[3-(1,1,1-trifluoro-2-methylpropan-2-yl)-1,2-oxazol-5-yl]acetamide Methanesulfonate]
suppression of the phosphorylation of Y905 (pRET(Y905)) [1]: dose-dependent suppression of the phosphorylation of Y905 | tumor regression ([3]; 3 mg/kg or 1 mg/kg three times a day for 9 days (FIG. 1)): dose-dependent tumor regression | reduction in body weight ([3]; 3 mg/kg or 1 mg/kg three times a day for 9 days, compared to Vehicle group): no significant reduction in body weight
